Test results from PubChem BioAssay AID284 (DTP/NCI, 2004).
Where “and” joins values, the source holds several entries; their conditions need not be identical. Equal values may be shown once. Toxic doses and inconclusive results are not listed.

Test system: BDF1 mice, L1210/MTX-resistant leukemia ip, survival T/C
Test: NCI In Vivo Anticancer Drug Screen. Data for tumor model L1210 Leukemia resistant to Methotrexate; NSC 740 (intraperitoneal) in B6D2F1 (BDF1) mice
Details: endpoint: mean survival time, higher = longer survival
Protocol: The antitumor activity of compounds was measured in mice bearing transplantable tumors. Survival or tumor size were measured and the results are expressed as the measurement made in the treated group (T) divided by the measurement made in the vehicle treated control group (C). The tumor model used in this assay is L1210 Leukemia resistant to Methotrexate; NSC 740 (intraperitoneal) in B6D2F1 (BDF1) mice

[1] = dose: 2.0 mg/kg/injection, schedule: Q01DX010 (ip), vehicle: saline
[2] = dose: 4.0 mg/kg/injection, schedule: Q01DX010 (ip), vehicle: saline
[3] = dose: 8.0 mg/kg/injection, schedule: Q01DX010 (ip), vehicle: saline
[4] = dose: 16.0 mg/kg/injection, schedule: Q01DX010 (ip), vehicle: saline
[5] = dose: 2.0 mg/kg/injection, schedule: Q01DX010 (ip), vehicle: other
[6] = dose: 2.0 mg/kg/injection, schedule: Q01DX Z (ip), vehicle: carboxymethylcellulose (CMC)
[7] = dose: 4.0 mg/kg/injection, schedule: Q01DX010 (ip), vehicle: other
[8] = dose: 5.0 mg/kg/injection, schedule: Q01DX Z (ip), vehicle: carboxymethylcellulose (CMC)
[9] = dose: 7.5 mg/kg/injection, schedule: Q01DX Z (ip), vehicle: carboxymethylcellulose (CMC)
[10] = dose: 8.0 mg/kg/injection, schedule: Q01DX010 (ip), vehicle: other
[11] = dose: 10.0 mg/kg/injection, schedule: Q01DX Z (ip), vehicle: carboxymethylcellulose (CMC)
[12] = dose: 62.5 mg/kg/injection, schedule: Q01DX010 (ip), vehicle: saline
[13] = dose: 125.0 mg/kg/injection, schedule: Q01DX010 (ip), vehicle: saline
[14] = dose: 500.0 mg/kg/injection, schedule: Q01DX010 (ip), vehicle: saline
[15] = dose: 20.0 mg/kg/injection, schedule: Q01DX Z (ip), vehicle: carboxymethylcellulose (CMC)
[16] = dose: 50.0 mg/kg/injection, schedule: Q01DX Z (ip), vehicle: carboxymethylcellulose (CMC)
[17] = dose: 100.0 mg/kg/injection, schedule: Q01DX Z (ip), vehicle: carboxymethylcellulose (CMC)
[18] = dose: 12.5 mg/kg/injection, schedule: Q01DX010 (ip), vehicle: saline

`O=C(Nc1ccc(NC2=NCCN2)cc1)c1ccc(C(=O)Nc2ccc(NC3=NCCN3)cc2)cc1` was tested, and the T/C [1] was 167 % of control and 219 % of control, the T/C [2] was 248 % of control and 257 % of control and the T/C [3] was 188 % of control and 243 % of control. The T/C [4] was 101 % of control and 106 % of control.

With `NC(Cc1ccc(N(CCCl)CCCl)cc1)C(=O)O` (configuration not stated) the T/C (dose: 0.5 mg/kg/injection, schedule: Q01DX Z (ip), vehicle: carboxymethylcellulose (CMC)) was 112 % of control, the T/C (dose: 1.0 mg/kg/injection, schedule: Q01DX Z (ip), vehicle: carboxymethylcellulose (CMC)) was 123 % of control and the T/C [5] was 156 % of control. For the same compound, the T/C [6] was 102 % of control, the T/C [7] was 98 % of control and the T/C (dose: 4.0 mg/kg/injection, schedule: Q01DX Z (ip), vehicle: carboxymethylcellulose (CMC)) was 90 % of control. For the same compound, the T/C [8] was 107 % of control, the T/C [9] was 86 % of control and the T/C [10] was 91 % of control. For the same compound, the T/C [11] was 93 % of control.

`CCOC(N)=O` was tested, and the T/C [12] was 87 % of control, the T/C [13] was 98 % of control and the T/C (dose: 188.0 mg/kg/injection, schedule: Q01DX Z (ip), vehicle: saline) was 102 % of control. The T/C (dose: 250.0 mg/kg/injection, schedule: Q01DX Z (ip), vehicle: saline) was 91 % of control, the T/C (dose: 375.0 mg/kg/injection, schedule: Q01DX Z (ip), vehicle: saline) was 87 % of control and 99 % of control and the T/C [14] was 88 % of control. The T/C (dose: 750.0 mg/kg/injection, schedule: Q01DX Z (ip), vehicle: saline) was 93 % of control and the T/C (dose: 1500.0 mg/kg/injection, schedule: Q01DX Z (ip), vehicle: saline) was 100 % of control.

In the case of `O=C(Nc1ccc(C2=NCCCN2)cc1)c1ccc(NC(=O)c2ccc(C3=NCCCN3)cc2)cc1`, the T/C [5] is reported as 168 % of control, the T/C [7] is reported as 218 % of control and 257 % of control and the T/C [10] is reported as 181 % of control and 221 % of control.

For `CN(C)C(=S)N=Nc1c(O)[nH]c2ccccc12`, the T/C (dose: 2.5 mg/kg/injection, schedule: Q01DX Z (ip), vehicle: carboxymethylcellulose (CMC)) was 110 % of control, the T/C [8] was 106 % of control and the T/C [11] was 115 % of control. For the same compound, the T/C [15] was 95 % of control, the T/C [16] was 124 % of control and the T/C [17] was 86 % of control.

In the case of `CC/C(=C(/CC)c1ccc(O)cc1)c1ccc(O)cc1`, the T/C [18] is reported as 94 % of control, the T/C (dose: 12.5 mg/kg/injection, schedule: Q01DX010 (sc), vehicle: steriod suspending solution) is reported as 92 % of control and the T/C (dose: 25.0 mg/kg/injection, schedule: Q01DX010 (ip), vehicle: saline) is reported as 94 % of control. For the same compound, the T/C (dose: 50.0 mg/kg/injection, schedule: Q01DX010 (sc), vehicle: steriod suspending solution) was 89 % of control and the T/C (dose: 100.0 mg/kg/injection, schedule: Q01DX010 (sc), vehicle: steriod suspending solution) was 86 % of control and 87 % of control.

With `Cn1c(O)c(N=NC(N)=S)c2ccccc21` the T/C [16] was 96 % of control and the T/C [17] was 86 % of control.

In the case of `S=P(N1CCOCC1)(N1CC1)N1CC1`, the T/C [6] is reported as 92 % of control, the T/C (dose: 6.0 mg/kg/injection, schedule: Q01DX Z (ip), vehicle: carboxymethylcellulose (CMC)) is reported as 93 % of control and the T/C (dose: 8.0 mg/kg/injection, schedule: Q01DX Z (ip), vehicle: carboxymethylcellulose (CMC)) is reported as 92 % of control. For the same compound, the T/C [11] was 96 % of control and the T/C [15] was 95 % of control.

`O=c1[nH]c(=O)n(C2CC(O)C(CO)O2)cc1I` (configuration not stated) was tested, and the T/C (dose: 3.75 mg/kg/injection, schedule: Q01DX Z (ip), vehicle: carboxymethylcellulose (CMC)) was 102 % of control, the T/C [9] was 108 % of control and the T/C (dose: 15.0 mg/kg/injection, schedule: Q01DX Z (ip), vehicle: carboxymethylcellulose (CMC)) was 108 % of control. For the same compound, the T/C (dose: 30.0 mg/kg/injection, schedule: Q01DX Z (ip), vehicle: carboxymethylcellulose (CMC)) was 106 % of control.

With `CCN(CC)c1ccc2cc3ccc(=[N+](CC)CC)cc-3oc2c1` the T/C (dose: 1.0 mg/kg/injection, schedule: Q01DX010 (ip), vehicle: saline) was 100 % of control, the T/C [1] was 91 % of control and the T/C [2] was 98 % of control.

With `C[C@]12CCC(=O)C=C1CC[C@@H]1[C@@H]2C(=O)C[C@@]2(C)[C@H]1CC[C@]2(O)C(=O)CO` the T/C (dose: 63.0 mg/kg/injection, schedule: Q01DX Z (sc), vehicle: steriod suspending solution) was 101 % of control and 106 % of control, the T/C (dose: 100.0 mg/kg/injection, schedule: Q01DX Z (sc), vehicle: steriod suspending solution) was 89 % of control and the T/C (dose: 125.0 mg/kg/injection, schedule: Q01DX Z (sc), vehicle: steriod suspending solution) was 98 % of control and 102 % of control.

In the case of `O=c1[nH]c(=O)n(C2CC(O)C(CO)O2)cc1F` (configuration not stated), the T/C (dose: 40.0 mg/kg/injection, schedule: Q01DX Z (ip), vehicle: other) is reported as 118 % of control, the T/C (dose: 80.0 mg/kg/injection, schedule: Q01DX Z (ip), vehicle: other) is reported as 98 % of control and the T/C (dose: 160.0 mg/kg/injection, schedule: Q01DX Z (ip), vehicle: other) is reported as 102 % of control.

`CN(N=O)C(=O)NC(C=O)C(O)C(O)C(O)CO` (configuration not stated) was tested, and the T/C [18] was 100 % of control, the T/C (dose: 50.0 mg/kg/injection, schedule: Q01DX Z (ip), vehicle: saline) was 106 % of control and the T/C (dose: 100.0 mg/kg/injection, schedule: Q01DX010 (ip), vehicle: saline) was 100 % of control. For the same compound, the T/C (dose: 100.0 mg/kg/injection, schedule: Q01DX Z (ip), vehicle: saline) was 97 % of control.

With `c1ccc(CCSc2ncnc3nc[nH]c23)cc1` the T/C [12] was 93 % of control, the T/C [13] was 91 % of control and the T/C (dose: 250.0 mg/kg/injection, schedule: Q01DX010 (ip), vehicle: saline) was 100 % of control. For the same compound, the T/C [14] was 100 % of control.

With `NC(=O)N(CCCl)N=O` the T/C (dose: 0.5 mg/kg/injection, schedule: Q01DX010 (ip), vehicle: saline) was 158 % of control and the T/C [2] was 104 % of control.

`CCCCNc1ncnc2c1cnn2C` was tested, and the T/C (dose: 31.25 mg/kg/injection, schedule: Q01DX010 (ip), vehicle: saline) was 98 % of control and 102 % of control and the T/C [12] was 90 % of control.

For `Nc1nc(SCc2ccccc2)c2[nH]cnc2n1`, the T/C (dose: 6.25 mg/kg/injection, schedule: Q01DX Z (ip), vehicle: carboxymethylcellulose (CMC)) was 121 % of control, the T/C [3] was 105 % of control and the T/C (dose: 12.5 mg/kg/injection, schedule: Q01DX Z (ip), vehicle: carboxymethylcellulose (CMC)) was 114 % of control. For the same compound, the T/C [4] was 120 % of control, the T/C (dose: 25.0 mg/kg/injection, schedule: Q01DX Z (ip), vehicle: carboxymethylcellulose (CMC)) was 107 % of control and the T/C [16] was 105 % of control. For the same compound, the T/C (dose: 62.5 mg/kg/injection, schedule: Q01DX Z (ip), vehicle: carboxymethylcellulose (CMC)) was 95 % of control and the T/C (dose: 64.0 mg/kg/injection, schedule: Q01DX010 (ip), vehicle: saline) was 96 % of control.

With `O[C@H](CN1CC1)[C@@H](O)CN1CC1` the T/C (dose: 0.01 mg/kg/injection, schedule: Q01DX Z (ip), vehicle: saline) was 99 % of control, the T/C (dose: 0.02 mg/kg/injection, schedule: Q01DX Z (ip), vehicle: saline) was 105 % of control and the T/C (dose: 0.37 mg/kg/injection, schedule: Q01DX Z (ip), vehicle: saline) was 151 % of control.

`S=P(N1CCCC1)(N1CC1)N1CC1` was tested, and the T/C (dose: 0.03 mg/kg/injection, schedule: Q01DX Z (ip), vehicle: methylcellulose (MC)) was 93 % of control, the T/C (dose: 0.05 mg/kg/injection, schedule: Q01DX Z (ip), vehicle: methylcellulose (MC)) was 91 % of control and the T/C (dose: 0.1 mg/kg/injection, schedule: Q01DX Z (ip), vehicle: methylcellulose (MC)) was 99 % of control.

With `C[C@H](N)C(=O)N[C@@H]1[C@H]2C(=C(O)C[C@@H](O)[C@@H]2O)C(=O)O[C@@H]1C` the T/C (dose: 500.0 mg/kg/injection, schedule: Q01DX Z (ip), vehicle: saline) was 120 % of control, the T/C (dose: 600.0 mg/kg/injection, schedule: Q01DX Z (ip), vehicle: saline) was 174 % of control and 187 % of control and the T/C (dose: 1000.0 mg/kg/injection, schedule: Q01DX Z (ip), vehicle: saline) was 102 % of control and 110 % of control. For the same compound, the T/C (dose: 1200.0 mg/kg/injection, schedule: Q01DX Z (ip), vehicle: saline) was 121 % of control and 122 % of control.

In the case of `C[C@@H]1C[C@H]2CC[C@H](O2)[C@H](C)C(=O)O[C@@H](C)C[C@@H]2CC[C@@H](O2)[C@@H](C)C(=O)O[C@H](C)C[C@H]2CC[C@H](O2)[C@H](C)C(=O)O[C@@H](C)C[C@@H]2CC[C@@H](O2)[C@@H](C)C(=O)O1`, the T/C (dose: 100.0 mg/kg/injection, schedule: Q01DX Z (ip), vehicle: methylcellulose (MC)) is reported as 89 % of control.
